Tests used:
Assay in all cases: relative viability (nuclei count vs DMSO), 5 days (fraction); higher = more cells survive
[1] = compound: O=C(O)c1ccc2c(c1)nc(Nc1cccc(Cl)c1)c1ccncc12 [Silmitasertib] + Nc1ncn([C@H]2C[C@H](O)[C@@H](CO)O2)c(=O)n1 [Decitabine] (partner 2 µM)
Procedure, shortened: (§1)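 The day after seeding in 1536-well plates, lung cancer cell lines were treated by pin tool with a single drug, or with a fixed anchor-drug dose together with five library-drug doses (not always all listed) in √10 steps. After 5 days, a combined fix-and-stain solution (final 0.05% Triton X-100, 1% formaldehyde, 1 ug/ml Hoechst) was added. Nuclei counted on 4× images gave relative viability as treated counts over vehicle counts, reported as the median of duplicate plates.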

[2] = compound: O=C(O)c1ccc2c(c1)nc(Nc1cccc(Cl)c1)c1ccncc12 [Silmitasertib] + COc1cccc2cc(-c3nc([C@H]4CC[C@H](C(=O)O)CC4)n4ncnc(N)c34)[nH]c12 [OSI-027] (partner 0.5 µM)
Procedure, shortened: as §1

[3] = compound: O=C(O)c1ccc2c(c1)nc(Nc1cccc(Cl)c1)c1ccncc12 [Silmitasertib] + CC(C)C[C@H](NC(=O)[C@H](Cc1ccccc1)NC(=O)c1cnccn1)B(O)O [Bortezomib] (partner 0.002 µM)
Procedure, shortened: as §1

[4] = compound: O=C(O)c1ccc2c(c1)nc(Nc1cccc(Cl)c1)c1ccncc12 [Silmitasertib] + Nc1nc2[nH]cc(CCc3ccc(C(=O)N[C@@H](CCC(=O)O)C(=O)O)cc3)c2c(=O)[nH]1 [Pemetrexed] (partner 0.2 µM)
Procedure, shortened: as §1

[5] = compound: O=C(O)c1ccc2c(c1)nc(Nc1cccc(Cl)c1)c1ccncc12 [Silmitasertib] + C[C@@H](Oc1cc(-c2cnn(C3CCNCC3)c2)cnc1N)c1c(Cl)ccc(F)c1Cl [Crizotinib] (partner 1 µM)
Procedure, shortened: as §1

| Cell Line | relative viability ([1]; first compound 0.04 µM) | relative viability ([1]; first compound 0.4 µM) | relative viability ([1]; first compound 1.265 µM) | relative viability ([1]; first compound 4 µM) | relative viability ([2]; first compound 0.04 µM) | relative viability ([2]; first compound 0.4 µM) | relative viability ([2]; first compound 1.265 µM) | relative viability ([2]; first compound 4 µM) | relative viability ([3]; first compound 0.04 µM) | relative viability ([3]; first compound 0.4 µM) | relative viability ([3]; first compound 1.265 µM) | relative viability ([3]; first compound 4 µM) | relative viability ([4]; first compound 0.04 µM) | relative viability ([4]; first compound 0.4 µM) | relative viability ([4]; first compound 1.265 µM) | relative viability ([4]; first compound 4 µM) | relative viability ([5]; first compound 0.04 µM) | relative viability ([5]; first compound 0.4 µM) | relative viability ([5]; first compound 1.265 µM) | relative viability ([5]; first compound 4 µM) |
| --- | --- | --- | --- | --- | --- | --- | --- | --- | --- | --- | --- | --- | --- | --- | --- | --- | --- | --- | --- | --- |
| HCC-44 | 0.933 | 0.929 | 1.01 | 0.825 | 0.524 | 0.606 | 0.508 | 0.29 | 0.858 | 0.753 | 0.883 | 0.49 | 0.63 | 0.667 | 0.71 | 0.661 | 0.729 | 0.697 | 0.839 | 0.771 |
| HCC-78 | 0.64 | 0.603 | 0.381 | 0.613 | 0.437 | 0.346 | 0.369 | 0.335 | 0.609 | 0.333 | – | 0.551 | 0.91 | 0.886 | 0.613 | 0.918 | 0.379 | 0.31 | 0.298 | 0.323 |
| HCC-366 | 0.37 | 0.347 | 0.31 | 0.379 | 0.896 | 0.489 | 0.7 | 0.0818 | 1.1 | – | 0.995 | 0.482 | 0.13 | 0.162 | 0.175 | 0.128 | 0.581 | – | 0.472 | 0.395 |
| HCC-827 | 0.313 | – | 0.153 | 0.292 | 0.872 | – | 0.702 | 0.736 | 1.04 | – | 1.2 | 0.89 | 0.282 | – | 0.282 | 0.273 | 0.993 | – | 0.952 | 1.01 |
| HOP-62 | 0.24 | – | 0.203 | 0.211 | 0.897 | – | 0.905 | 0.497 | 0.504 | – | 0.425 | 0.486 | 0.281 | – | 0.269 | 0.301 | 0.914 | – | 0.943 | 0.49 |
| IA-LM | – | – | – | – | – | – | – | – | 0.879 | 0.632 | 1.01 | 0.586 | – | – | – | – | 0.792 | 0.725 | 0.916 | 0.659 |
| LK-2 | 0.312 | – | 0.194 | 0.21 | 0.266 | – | 0.247 | 0.184 | – | – | – | – | 0.254 | – | 0.084 | 0.297 | 0.198 | 0.333 | 0.245 | 0.187 |
| NCI-H358 | 0.22 | 0.217 | 0.199 | 0.199 | 1.09 | 0.349 | 0.519 | 0.376 | – | – | – | – | 0.186 | 0.164 | 0.18 | 0.131 | 0.616 | 0.47 | 0.493 | 0.407 |
| NCI-H727 | 1.09 | 0.844 | 0.544 | 0.691 | 0.701 | 0.426 | 0.48 | 0.488 | 1 | 0.608 | 0.736 | 0.516 | – | – | – | – | 0.868 | 0.65 | 0.753 | 0.485 |
| NCI-H1395 | 0.756 | 0.725 | 0.684 | 0.683 | 0.731 | 0.552 | 0.591 | 0.477 | – | – | – | – | 0.975 | 0.756 | 0.841 | 0.654 | – | – | – | – |
| NCI-H1563 | – | – | – | – | 0.773 | 0.773 | 0.779 | 0.681 | 0.932 | 0.903 | 0.844 | 0.821 | 0.871 | 0.844 | – | 0.693 | 0.88 | 0.822 | 0.856 | 0.857 |
| NCI-H1703 | – | – | – | – | – | – | – | – | 0.352 | 0.278 | 0.294 | 0.193 | – | – | – | – | 0.954 | 0.596 | 0.787 | 0.392 |
| NCI-H1793 | 0.499 | 0.458 | 0.493 | 0.419 | 0.329 | 0.192 | 0.27 | 0.217 | – | – | – | – | 1.08 | 0.851 | 0.719 | 0.425 | – | – | – | – |
| NCI-H1944 | 0.442 | 0.467 | 0.46 | 0.497 | 0.409 | 0.382 | 0.424 | 0.295 | – | – | – | – | 0.551 | 0.447 | 0.615 | 0.77 | 1.1 | 0.856 | 0.965 | 1.03 |
| NCI-H2170 | 0.477 | 0.46 | 0.457 | 0.441 | 0.798 | 0.535 | 0.619 | 0.54 | – | – | – | – | 0.271 | 0.258 | 0.25 | 0.282 | 1.22 | 0.958 | 0.863 | 1.15 |
| NCI-H2228 | – | – | – | – | 0.541 | – | 0.583 | 0.494 | 1.46 | 0.92 | 0.912 | 1.13 | 0.331 | 0.337 | 0.333 | 0.307 | 0.497 | 0.495 | 0.449 | 0.374 |
| NCI-H2342 | 0.791 | – | 0.79 | 0.743 | 0.762 | 0.606 | 0.504 | 0.539 | – | – | – | – | 0.77 | – | 0.72 | 0.681 | – | – | – | – |
| SK-MES-1 | 0.396 | 0.382 | 0.328 | 0.209 | 0.675 | 0.558 | 0.435 | 0.236 | – | – | – | – | 1.03 | 1.02 | 0.763 | 0.339 | 1.1 | 1.05 | 1.06 | 0.656 |
| SW 900 | 0.499 | 0.422 | 0.377 | 0.347 | 0.648 | 0.304 | 0.388 | 0.207 | – | – | – | – | 0.493 | 0.463 | 0.464 | 0.258 | – | – | – | – |

From the supplement of paper PMC10307832
